Test results as given in paper PMC11033320, “Activation of p53 signaling and regression of breast and prostate carcinoma cells by spirooxindole-benzimidazole small molecules” (Frontiers in Pharmacology, 2024).

Assays:
[1] = MTT cytotoxicity to normal human lung fibroblast Wi-38 cell line; type: cell-based; details: Wi-38 normal lung fibroblast cells, mean ± SEM, read-out: percentage of Wi-38 viability
PC-3 cells = assay: MTT assay anticancer activity, PC-3; type: cell-based; details: Homo sapiens, PC-3, 5 µM, mean ± SEM, read-out: growth inhibition percentage of PC-3
Description: MTT method was done as described above.

K-562 = assay: NCI anticancer screening, Leukemia K-562; type: cell-based; details: Homo sapiens, K562; K-562, 10 μM; read-out: % Growth Inhibition (GI %)
Method in brief: (§1)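 Run at the Developmental Therapeutics Program following its standard screen of sixty human tumour cell lines for organics.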

MOLT-4 = assay: NCI anticancer screening, Leukemia MOLT-4; type: cell-based; details: Homo sapiens; MOLT-4, 10 μM; read-out: % Growth Inhibition (GI %)
Method in brief: as §1

RPMI-8226 = assay: NCI anticancer screening, Leukemia RPMI-8226; type: cell-based; details: Homo sapiens; RPMI-8226, 10 μM; read-out: % Growth Inhibition (GI %)
Method in brief: as §1

A549/ATCC = assay: NCI anticancer screening, Non-Small Cell Lung Cancer A549/ATCC; type: cell-based; details: Homo sapiens, read-out: % Growth Inhibition (GI %)
Method in brief: as §1

HOP-92 = assay: NCI anticancer screening, Non-Small Cell Lung Cancer HOP-92; type: cell-based; details: Homo sapiens; HOP-92, 10 μM; read-out: % Growth Inhibition (GI %)
Method in brief: as §1

NCI-H322M = assay: NCI anticancer screening, Non-Small Cell Lung Cancer NCI-H322M; type: cell-based; details: Homo sapiens, read-out: % Growth Inhibition (GI %)
Method in brief: as §1

NCI-H460 = assay: NCI anticancer screening, Non-Small Cell Lung Cancer NCI-H460; type: cell-based; details: Homo sapiens; NCI-H460, 10 μM; read-out: % Growth Inhibition (GI %)
Method in brief: as §1

NCI-H522 = assay: NCI anticancer screening, Non-Small Cell Lung Cancer NCI-H522; type: cell-based; details: Homo sapiens; NCI-H522, 10 μM; read-out: % Growth Inhibition (GI %)
Method in brief: as §1

HT29 = assay: NCI anticancer screening, Colon Cancer HT29; type: cell-based; details: Homo sapiens, HT-29; HT29, 10 μM; read-out: % Growth Inhibition (GI %)
Method in brief: as §1

KM12 = assay: NCI anticancer screening, Colon Cancer KM12; type: cell-based; details: Homo sapiens; KM12, 10 μM; read-out: % Growth Inhibition (GI %)
Method in brief: as §1

SW-620 = assay: NCI anticancer screening, Colon Cancer SW-620; type: cell-based; details: Homo sapiens; SW-620, 10 μM; read-out: % Growth Inhibition (GI %)
Method in brief: as §1

SF-268 = assay: NCI anticancer screening, CNS Cancer SF-268; type: cell-based; details: Homo sapiens; SF-268, 10 μM; read-out: % Growth Inhibition (GI %)
Method in brief: as §1

SNB-19 = assay: NCI anticancer screening, CNS Cancer SNB-19; type: cell-based; details: Homo sapiens; SNB-19, 10 μM; read-out: % Growth Inhibition (GI %)
Method in brief: as §1

LOX IMVI = assay: NCI anticancer screening, Melanoma LOX IMVI; type: cell-based; details: Homo sapiens, read-out: % Growth Inhibition (GI %)
Method in brief: as §1

MALME-3M = assay: NCI anticancer screening, Melanoma MALME-3M; type: cell-based; details: Homo sapiens, read-out: % Growth Inhibition (GI %)
Method in brief: as §1

M14 = assay: NCI anticancer screening, Melanoma M14; type: cell-based; details: Homo sapiens; M14, 10 μM; read-out: % Growth Inhibition (GI %)
Method in brief: as §1

SK-MEL-28 = assay: NCI anticancer screening, Melanoma SK-MEL-28; type: cell-based; details: Homo sapiens; SK-MEL-28, 10 μM; read-out: % Growth Inhibition (GI %)
Method in brief: as §1

SK-MEL-5 = assay: NCI anticancer screening, Melanoma SK-MEL-5; type: cell-based; details: Homo sapiens; SK-MEL-5, 10 μM; read-out: % Growth Inhibition (GI %)
Method in brief: as §1

UACC-257 = assay: NCI anticancer screening, Melanoma UACC-257; type: cell-based; details: Homo sapiens; UACC-257, 10 μM; read-out: % Growth Inhibition (GI %)
Method in brief: as §1

UACC-62 = assay: NCI anticancer screening, Melanoma UACC-62; type: cell-based; details: Homo sapiens; UACC-62, 10 μM; read-out: % Growth Inhibition (GI %)
Method in brief: as §1

OVCAR-4 = assay: NCI anticancer screening, Ovarian Cancer OVCAR-4; type: cell-based; details: Homo sapiens; OVCAR-4, 10 μM; read-out: % Growth Inhibition (GI %)
Method in brief: as §1

786-0 = assay: NCI anticancer screening, Renal Cancer 786-0; type: cell-based; details: Homo sapiens; 786-0, 10 μM; read-out: % Growth Inhibition (GI %)
Method in brief: as §1

RXF 393 = assay: NCI anticancer screening, Renal Cancer RXF 393; type: cell-based; details: Homo sapiens; RXF 393, 10 μM; read-out: % Growth Inhibition (GI %)
Method in brief: as §1

UO-31 = assay: NCI anticancer screening, Renal Cancer UO-31; type: cell-based; details: Homo sapiens; UO-31, 10 μM; read-out: % Growth Inhibition (GI %)
Method in brief: as §1

DU-145 = assay: NCI anticancer screening, DU-145; type: cell-based; details: Homo sapiens; DU-145, 10 μM; read-out: % Growth Inhibition (GI %)
Method in brief: as §1

MCF7 = assay: NCI anticancer screening, Breast Cancer MCF7; type: cell-based; details: Homo sapiens; MCF7, 10 μM; read-out: % Growth Inhibition (GI %)
Method in brief: as §1

HS 578T = assay: NCI anticancer screening, Breast Cancer HS 578T; type: cell-based; details: Homo sapiens, read-out: % Growth Inhibition (GI %)
Method in brief: as §1

BT-549 = assay: NCI anticancer screening, Breast Cancer BT-549; type: cell-based; details: Homo sapiens; BT-549, 10 μM; read-out: % Growth Inhibition (GI %)
Method in brief: as §1

T-47D = assay: NCI anticancer screening, Breast Cancer T-47D; type: cell-based; details: Homo sapiens, T47D, read-out: % Growth Inhibition (GI %)
Method in brief: as §1

MDA-MB 231 cells = details: for inhibition: 5 µM
Description: Anticancer effect of the above-mentioned compounds was assayed using three human cancer cell lines. Triple negative breast cancer cell line (MDA-MB 231) and prostate cancer cell line (PC3) were cultured in DMEM (Lonza, USA) supplemented with 10% FBS. All cancer cells (4x10^3 cells/well) were seeded in sterile 96-well plates. After 24h, serial concentrations of the tested compounds were incubated with three cancer cell lines for 72 h at 37 °C in 5% CO2 incubator. […] The half maximal inhibitory concentration (IC50) values were calculated using the Graphpad Instat software.

| Compound | viability at 72 h, 5 µM [1] [%] | inhibition at 5 µM (PC-3 cells) [%] | inhibition at 10 µM (K-562) [%] | inhibition at 10 µM (MOLT-4) [%] | inhibition at 10 µM (RPMI-8226) [%] | inhibition at 10 µM (A549/ATCC) [%] | inhibition at 10 µM (HOP-92) [%] | inhibition at 10 µM (NCI-H322M) [%] | inhibition at 10 µM (NCI-H460) [%] | inhibition at 10 µM (NCI-H522) [%] | inhibition at 10 µM (HT29) [%] | inhibition at 10 µM (KM12) [%] | inhibition at 10 µM (SW-620) [%] | inhibition at 10 µM (SF-268) [%] | inhibition at 10 µM (SNB-19) [%] | inhibition at 10 µM (LOX IMVI) [%] | inhibition at 10 µM (MALME-3M) [%] | inhibition at 10 µM (M14) [%] | inhibition at 10 µM (SK-MEL-28) [%] | inhibition at 10 µM (SK-MEL-5) [%] | also measured |
| --- | --- | --- | --- | --- | --- | --- | --- | --- | --- | --- | --- | --- | --- | --- | --- | --- | --- | --- | --- | --- | --- |
| O=C(c1nc2ccccc2[nH]1)[C@H]1[C@H](c2cccc(F)c2)C2CSCN2[C@]12C(=O)Nc1ccccc12 (stereo partly drawn) [Compound 6m, (3S,6′R)-6'-(1H-Benzo [d]imidazole-2-carbonyl)-7'-(3-fluorophenyl)-3′,6′,7′,7a′-tetrahydro-1′H-spiro [indoline-3.5′-pyrrolo [1,2-c]thiazol]-2-one] | 43.7 ± 2.29 | 60.1 ± 0.521 | 84.4 | 85.5 | 83.6 | 84.6 | 99.7 | 99.8 | 97.3 | 77.8 | 86 | 98.1 | 89.1 | 88.6 | 91.9 | 87.5 | 97.5 | 97 | 102 | 88.8 | inhibition at 10 µM (UACC-257): 99%; inhibition at 10 µM (UACC-62): 80.1%; inhibition at 10 µM (OVCAR-4): 87.3%; inhibition at 10 µM (786-0): 100%; inhibition at 10 µM (RXF 393): 85.2%; inhibition at 10 µM (UO-31): 65.3%; inhibition at 10 µM (DU-145): 105%; inhibition at 10 µM (MCF7): 91.2%; inhibition at 10 µM (HS 578T): 78.2%; inhibition at 10 µM (BT-549): 99.5%; inhibition at 10 µM (T-47D): 79.8%; melting point: 224 to 226 °C; IC50 (MDA-MB 231 cells): 4.73 ± 0.224 µM; inhibition (MDA-MB 231 cells): 62.8 ± 3.91% |
| O=C(c1nc2ccccc2[nH]1)[C@H]1[C@H](c2ccco2)C2CSCN2[C@]12C(=O)Nc1ccccc12 (stereo partly drawn) [Compound 6n, (3S,6′R)-6'-(1H-Benzo [d]imidazole-2-carbonyl)-7'-(furan-2-yl)-3′,6′,7′,7a′-tetrahydro-1′H-spiro [indoline-3.5′-pyrrolo [1,2-c]thiazol]-2-one] | 46.2 ± 1.47 | 52.5 ± 1.46 | 89.8 | 96.8 | 101 | 102 | 113 | 101 | 102 | 99.7 | 115 | 102 | 95.6 | 102 | 96.8 | 91.7 | 102 | 101 | 107 | 98.2 | inhibition at 10 µM (UACC-257): 116%; inhibition at 10 µM (UACC-62): 90.6%; inhibition at 10 µM (OVCAR-4): 99.2%; inhibition at 10 µM (786-0): 104%; inhibition at 10 µM (RXF 393): 104%; inhibition at 10 µM (UO-31): 61.7%; inhibition at 10 µM (DU-145): 114%; inhibition at 10 µM (MCF7): 100%; inhibition at 10 µM (HS 578T): 91.3%; inhibition at 10 µM (BT-549): 110%; inhibition at 10 µM (T-47D): 84.8%; melting point: 240 to 242 °C; IC50 (MDA-MB 231 cells): 6.14 ± 0.246 µM; inhibition (MDA-MB 231 cells): 52.9 ± 2.5% |
